Measurements taken from patent publication US20240158446A1, “CYCLIC COMPOUND HAVING SELECTIVE INHIBITORY ACTION ON KRAS OVER HRAS AND NRAS” (CHUGAI SEIYAKU KABUSHIKI KAISHA, priority 2021, published 2024).
Like-named read-outs stand apart in the source and are kept apart here. *1 amine or outer side, *2 acyl side, *3 side chain or, on linkers, in order; H or OH if unused. Where a SMILES comes first, the peptide text is derived from it. Bridges are numbered along the chain shown (N, C = ends). [ ]: non-standard residue; d: D form. The star is where a group is joined. hPhe(3-Cl-4-CF3) = N[C@@H](CCc1ccc(C(F)(F)F)c(Cl)c1)C(=O)O; NPrPhe(4-CF3) = CCCN[C@@H](Cc1ccc(C(F)(F)F)cc1)C(=O)O; X7 = CCN([C@H](C(=O)[*:2])C1CCCC1)[*:1]; NMeGly(cPent) = CN[C@H](C(=O)O)C1CCCC1; Pro(4,4-F2) = O=C(O)[C@@H]1CC(F)(F)CN1; Pro(4,4-Me2) = CC1(C)CN[C@H](C(=O)O)C1; NMeD = CN[C@@H](CC(=O)O)C(=O)O; NMeL = CN[C@@H](CC(C)C)C(=O)O; Morpholide = C1CN(*)CCO1; NMeA = CN[C@@H](C)C(=O)O; Ac5c = NC1(C(=O)O)CCCC1; Aze = O=C(O)[C@@H]1CCN1; Ac4c = NC1(C(=O)O)CCC1; Sar = CNCC(=O)O

Columns and labels:
[1] = target: GDP-bound KRAS wild-type protein (Homo sapiens, UniProt P01116); assay: Binding to KRAS by surface plasmon resonance (SPR), Single Cycle Kinetics; conditions: GDP-bound KRAS wild-type protein, read-out: KRAS KD
Sequence of GDP-bound KRAS wild-type protein (P01116 whole entry): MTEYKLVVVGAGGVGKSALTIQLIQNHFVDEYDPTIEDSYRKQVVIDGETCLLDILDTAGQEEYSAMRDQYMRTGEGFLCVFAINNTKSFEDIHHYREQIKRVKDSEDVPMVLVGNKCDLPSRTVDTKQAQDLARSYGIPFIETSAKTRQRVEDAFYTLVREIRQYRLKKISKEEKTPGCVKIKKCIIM

[2] = target: GDP-bound NRAS wild-type protein (Homo sapiens, UniProt P01111); assay: Binding to NRAS by surface plasmon resonance (SPR), Single Cycle Kinetics; conditions: for NRAS/KRAS (ratio of KD value with respect to GDP-bound NRAS wild-type protein to KD value with respect to KRAS): SPR KD ratio NRAS/KRAS, class symbols
Sequence of GDP-bound NRAS wild-type protein (P01111 whole entry): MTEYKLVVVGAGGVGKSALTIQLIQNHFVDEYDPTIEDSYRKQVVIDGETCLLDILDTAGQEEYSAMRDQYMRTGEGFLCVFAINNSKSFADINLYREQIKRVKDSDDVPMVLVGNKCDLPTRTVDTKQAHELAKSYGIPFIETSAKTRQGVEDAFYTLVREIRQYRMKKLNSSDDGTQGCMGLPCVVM

[3] = target: GDP-bound HRAS wild-type protein (Homo sapiens, UniProt P01112); assay: Binding to HRAS by surface plasmon resonance (SPR), Single Cycle Kinetics; conditions: for HRAS/KRAS (ratio of KD value with respect to GDP-bound HRAS wild-type protein to KD value with respect to KRAS): SPR KD ratio HRAS/KRAS, class symbols
Sequence of GDP-bound HRAS wild-type protein (P01112 whole entry): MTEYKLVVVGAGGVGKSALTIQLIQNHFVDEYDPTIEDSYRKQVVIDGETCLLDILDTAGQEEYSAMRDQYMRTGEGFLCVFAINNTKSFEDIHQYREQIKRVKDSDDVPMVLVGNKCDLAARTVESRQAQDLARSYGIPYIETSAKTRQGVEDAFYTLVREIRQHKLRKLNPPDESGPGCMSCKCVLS

[4] = SPR, GDP-bound NRAS wild-type protein vs GDP-bound KRAS wild-type protein
[5] = SPR, GDP-bound HRAS wild-type protein vs GDP-bound KRAS wild-type protein
[6] = SPR Single Cycle Kinetics, 1:1 binding model

Row | Structure (SMILES) | Kd [1, 6] | NRAS/KRAS (ratio of KD value for NRAS to KD value for KRAS) [2, 4] | HRAS/KRAS (ratio of KD value for HRAS to KD value for KRAS) [3, 5] | NRAS/KRAS (ratio of KD value with respect to GDP-bound NRAS wild-type protein to KD value with respect to KRAS) [2] | HRAS/KRAS (ratio of KD value with respect to GDP-bound HRAS wild-type protein to KD value with respect to KRAS) [3] | further results
1 | CCO[C@@H]1CCN2C(=O)[C@H](CCc3cc(F)c(C(F)(F)F)c(F)c3)NC(=O)CN(C)C(=O)[C@H](Cc3ccc(C(F)(F)F)cc3)N3CCCC[C@@H](C3=O)N(C)C(=O)CN(C)C(=O)[C@H]([C@@H](C)CC)NC(=O)[C@H](CC(C)C)N(C)C(=O)C[C@@H](C(=O)N3CCOCC3)N(C)C(=O)[C@H](C3CCCC3)N(C)C(=O)C3(CCC3)NC(=O)[C@H]12 [PP1079] |  | B (a compound having 3 or more and less than 10 is denoted as B) | B (a compound having 3 or more and less than 10 is denoted as B) |  |  | Kd ([1]; SPR, Single Cycle Kinetics): 0.23 nM
2 | CC[C@H](C)[C@@H]1NC(=O)[C@H](COC)N(C)C(=O)C[C@@H](C(=O)N2CCOCC2)N(C)C(=O)[C@H](C2CCCC2)N(C)C(=O)C2(CCC2)NC(=O)[C@@H]2C[C@@H](OC)CN2C(=O)[C@H](CCc2cc(F)c(C(F)(F)F)c(F)c2)NC(=O)CN(C)C(=O)[C@H](Cc2ccc(C(F)(F)F)cc2)N2CCCCC[C@@H](C2=O)N(C)C(=O)CN(C)C1=O [PP0837] |  | B (a compound having 3 or more and less than 10 is denoted as B) | B (a compound having 3 or more and less than 10 is denoted as B) |  |  | Kd ([1]; SPR, Single Cycle Kinetics): 0.19 nM
3 | CCCN1C(=O)CN(C)C(=O)CNC(=O)[C@H]([C@@H](C)CC)NC(=O)[C@H](CC(C)C)N(C)C(=O)C[C@@H](C(=O)N2CCOCC2)NC(=O)[C@H](C2CCCC2)N(C)C(=O)C2(CCC2)NC(=O)[C@@H]2CC(F)(F)CN2C(=O)[C@H](CCc2ccc(C(F)(F)F)c(Cl)c2)NC(=O)CN(C)C(=O)[C@@H]1Cc1ccc(C(F)(F)F)cc1 [PP0328] ([NMeL]IG[Sar][NPrPhe(4-CF3)][Sar][hPhe(3-Cl-4-CF3)][Pro(4,4-F2)][Ac4c][NMeGly(cPent)]D-Morpholide; lactam N-11) | 1.6 nM | B (a compound having 3 or more and less than 10 is denoted as B) | B (a compound having 3 or more and less than 10 is denoted as B) |  |  | 
4 | CCC(CC)[C@H]1C(=O)N(C)[C@H](C(=O)N(C)C)CC(=O)N(C)[C@@H](COC)C(=O)N[C@@H]([C@@H](C)CC)C(=O)N(C)CC(=O)N(C)[C@H]2C/C=C\CCN(C2=O)[C@@H](Cc2ccc(C(F)(F)F)cc2)C(=O)N(C)CC(=O)N[C@@H](CCc2cc(F)c(C(F)(F)F)c(F)c2)C(=O)N2CCOC[C@H]2C(=O)NC2(CC(C)(C)C2)C(=O)N1C [PP2917] | 1.4 nM |  |  | AA (a compound having 20 or more is denoted as AA) | A (a compound having 10 or more and less than 20 is denoted as A) | 
5 | CCCN(C)C(=O)[C@@H]1CC(=O)N(C)[C@@H](CC(C)C)C(=O)N[C@@H]([C@@H](C)CC)C(=O)N(C)CC(=O)N(C)[C@H]2C/C=C\CCN(C2=O)[C@@H](Cc2ccc(C(F)(F)F)cc2)C(=O)N(C)CC(=O)N[C@@H](CCc2cc(F)c(C(F)(F)F)c(F)c2)C(=O)N2C[C@H](OCC)C[C@H]2C(=O)NC2(CCC2)C(=O)N(C)[C@@H](C2CCCC2)C(=O)N1C [PP1387, (2S,8S,12R,14S,20S,23S,27S,30S,36S,38Z)-20-cyclopentyl-8-[2-[3,5-difluoro-4-(trifluoromethyl)phenyl]ethyl]-12-ethoxy-27-isobutyl-N,4,19,22,26,32,35-heptamethyl-30-[(1S)-1-methylpropyl]-3,6,9,15,18,21,25,28,31,34,42-undecaoxo-N-propyl-2-[[4-(trifluoromethyl)phenyl]methyl]spiro[1,4,7,10,16,19,22,26,29,32,35-undecazatricyclo[34.5.1.0^10,14]dotetracont-38-ene-17,1′-cyclobutane]-23-carboxamide] |  |  |  |  |  | Kd ([1]; SPR, Single Cycle Kinetics, 1:1 binding model): 0.098 nM; NRAS/KRAS (ratio of KD value for NRAS to KD value for KRAS) ([2]; SPR, GDP-bound NRAS wild-type protein vs GDP-bound KRAS wild-type protein, KD ratio class): A (a compound having 10 or more and less than 20 is denoted as A); HRAS/KRAS (ratio of KD value for HRAS to KD value for KRAS) ([3]; SPR, GDP-bound HRAS wild-type protein vs GDP-bound KRAS wild-type protein, KD ratio class): B (a compound having 3 or more and less than 10 is denoted as B)
6 | CCCOC[C@H]1C(=O)N[C@@H]([C@@H](C)CC)C(=O)N(C)CC(=O)N(C)[C@H]2C/C=C\CCN(C2=O)[C@@H](Cc2ccc(C)cc2)C(=O)N(C)CC(=O)N[C@@H](CCc2cc(F)c(C(F)(F)F)c(F)c2)C(=O)N2C[C@H](CCC)C[C@H]2C(=O)NC2(CCCC2)C(=O)N(C)[C@@H](C2CCCC2)C(=O)N(C)[C@H](C(=O)N(C)C)CC(=O)N1C [PP2229] |  | A (a compound having 10 or more and less than 20 is denoted as A) | A (a compound having 10 or more and less than 20 is denoted as A) |  |  | Kd ([1]; SPR, Single Cycle Kinetics): 0.38 nM
7 | CCC[C@H]1C(=O)N[C@@H]([C@@H](C)CC)C(=O)N(C)CC(=O)N(C)[C@H]2C/C=C\CCN(C2=O)[C@@H](Cc2ccc(C(F)(F)F)cc2)C(=O)N(C)CC(=O)N[C@@H](CCc2cc(Cl)c3c(ccn3C)c2)C(=O)N2C[C@H](OCC)C[C@H]2C(=O)NC2(CC(C)(C)C2)C(=O)N(C)[C@@H](C2CCCC2)C(=O)N(C)[C@H](C(=O)N(C)C)CC(=O)N1C [PP2950] | 0.76 nM |  |  | A (a compound having 10 or more and less than 20 is denoted as A) | A (a compound having 10 or more and less than 20 is denoted as A) | 
8 | CCC[C@H]1C(=O)N[C@@H]([C@@H](C)CC)C(=O)N(C)CC(=O)N(C)[C@H]2C/C=C\CCN(C2=O)[C@@H](Cc2ccc(C(F)(F)F)cc2)C(=O)N(C)CC(=O)N[C@@H](CCc2ccc(CC)c(Cl)c2)C(=O)N2C[C@H](OCC)C[C@H]2C(=O)NC2(CC(C)(C)C2)C(=O)N(C)[C@@H](C2CCCC2)C(=O)N(C)[C@H](C(=O)N(C)C)CC(=O)N1C [PP2848] | 0.47 nM |  |  | A (a compound having 10 or more and less than 20 is denoted as A) | A (a compound having 10 or more and less than 20 is denoted as A) | 

Second part, led by results:

Row | Kd [1, 6] | Structure (SMILES) | NRAS/KRAS (ratio of KD value for NRAS to KD value for KRAS) [2, 4] | HRAS/KRAS (ratio of KD value for HRAS to KD value for KRAS) [3, 5] | NRAS/KRAS (ratio of KD value with respect to GDP-bound NRAS wild-type protein to KD value with respect to KRAS) [2] | HRAS/KRAS (ratio of KD value with respect to GDP-bound HRAS wild-type protein to KD value with respect to KRAS) [3] | further results
9 | 1.2 nM | CCCN(C)C(=O)[C@@H]1CC(=O)N(C)[C@@H](CC)C(=O)N[C@@H]([C@@H](C)CC)C(=O)N(C)CC(=O)N(C)[C@H]2C/C=C\CCN(C2=O)[C@@H](Cc2ccc(C(F)(F)F)cc2)C(=O)N(C)CC(=O)N[C@@H](CCc2cc(F)c(C(F)(F)F)c(F)c2)C(=O)N2CC[C@H]2C(=O)NC2(CCC2)C(=O)N(C)[C@@H](C2CCCC2)C(=O)N1C [PP2915] |  |  | A (a compound having 10 or more and less than 20 is denoted as A) | A (a compound having 10 or more and less than 20 is denoted as A) | 
10 | 0.1 nM | CCCN1C(=O)CN(C)C(=O)CN(C)C(=O)[C@H]([C@@H](C)CC)NC(=O)[C@H](CC(C)C)N(C)C(=O)C[C@@H](C(=O)N2CCOCC2)N(C)C(=O)[C@H](C2CCCC2)N(C)C(=O)C2(CCCC2)NC(=O)[C@@H]2CC(C)(C)CN2C(=O)[C@H](CCc2ccc(C(F)(F)F)c(Cl)c2)NC(=O)CN(C)C(=O)[C@@H]1Cc1ccc(C(F)(F)F)cc1 [PP0446] ([NMeL]I[Sar][Sar][NPrPhe(4-CF3)][Sar][hPhe(3-Cl-4-CF3)][Pro(4,4-Me2)][Ac5c][NMeGly(cPent)][NMeD]-Morpholide; lactam N-11) |  |  |  |  | NRAS/KRAS (ratio of KD value with respect to NRAS to KD value with respect to KRAS) [2, 4]: B (a compound having 3 or more and less than 10 is denoted as B); HRAS/KRAS (ratio of KD value with respect to HRAS to KD value with respect to KRAS) [3, 5]: C (A compound having a KD ratio of 0.1 or more and less than 3 is denoted as C)
11 | 0.068 nM | CCCN1C(=O)CN(C)C(=O)CNC(=O)[C@H]([C@@H](C)CC)NC(=O)[C@H](CC(C)C)N(C)C(=O)C[C@@H](C(=O)N2CCOCC2)N(C)C(=O)[C@H](C2CCCC2)N(C)C(=O)C2(CCC2)NC(=O)[C@@H]2CC(F)(F)CN2C(=O)[C@H](CCc2ccc(C(F)(F)F)c(Cl)c2)NC(=O)CN(C)C(=O)[C@@H]1Cc1ccc(C(F)(F)F)cc1 [PP0395] ([NMeL]IG[Sar][NPrPhe(4-CF3)][Sar][hPhe(3-Cl-4-CF3)][Pro(4,4-F2)][Ac4c][NMeGly(cPent)][NMeD]-Morpholide; lactam N-11) | B (a compound having 3 or more and less than 10 is denoted as B) | C (A compound having a KD ratio of 0.1 or more and less than 3 is denoted as C) |  |  | 
12 | 2 nM | CC[C@H](C)[C@@H]1NC(=O)[C@H](CC(C)C)N(C)C(=O)C[C@@H](C(=O)N2CCOCC2)N(C)C(=O)[C@H](C2CCCC2)N(C)C(=O)C2(CCCC2)NC(=O)[C@@H]2CCCN2C(=O)[C@H](CCc2ccc(C(F)(F)F)c(Cl)c2)NC(=O)CN(C)C(=O)[C@H](C2CCCC2)N(CC)C(=O)[C@@H]2CCN2C(=O)[C@H](C)N(C)C1=O [PP0003] ([NMeL]I[NMeA][Aze][X7][Sar][hPhe(3-Cl-4-CF3)]P[Ac5c][NMeGly(cPent)][NMeD]-Morpholide; lactam N-11) | C (A compound having a KD ratio of 0.1 or more and less than 3 is denoted as C) | C (A compound having a KD ratio of 0.1 or more and less than 3 is denoted as C) |  |  | 
